{
  "source": "patent US7261907B2",
  "about": "“Compositions for the treatment of neurological disorders” (priority 2001, dated 2007)",
  "origin": "cited, not measured here",
  "test_system": "nicotine and cocaine addiction",
  "conditions": "in vivo",
  "note": "Counter-ions that a name gives are not always drawn.",
  "data": [
    {"compound": "CC(NC(C)(C)C)C(=O)c1cccc(Cl)c1", "note": "(stereo not shown) [bupropion hydrochloride]", "values": [
      {"measurement": "effectiveness in treating nicotine and cocaine addiction", "value": "moderately effective"}
    ]}
  ]
}
